Common to all, as to type: biochemical
For test [1], the target named is T1, fms (Homo sapiens, UniProt P07333).
T1 sequence (P07333 582-910 limits assumed): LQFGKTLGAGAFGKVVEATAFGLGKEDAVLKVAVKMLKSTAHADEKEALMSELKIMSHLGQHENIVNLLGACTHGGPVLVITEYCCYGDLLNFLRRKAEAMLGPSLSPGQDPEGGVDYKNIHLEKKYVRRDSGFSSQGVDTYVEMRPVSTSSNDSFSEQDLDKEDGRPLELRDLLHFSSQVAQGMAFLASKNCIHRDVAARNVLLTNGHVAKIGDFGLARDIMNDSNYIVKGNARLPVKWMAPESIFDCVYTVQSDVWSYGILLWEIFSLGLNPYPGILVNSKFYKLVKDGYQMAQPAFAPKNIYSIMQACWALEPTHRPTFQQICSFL
Briefly: fms kinase assay (ELISA or Alphascreen). The settings on record: read-out: fms inhibition of enzyme activity. Put shortly: (§1)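 Affinity-purified PTK domain (~1.5 μg) phosphorylated biotinylated peptide (5 μM final) in 50 mM HEPES pH 7.5, 10 mM MgCl2, 150 mM NaCl, 10 μM-1 mM ATP. Phosphotyrosine read by PY20 ELISA or Alphascreen.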

Test [2] addresses T2, abl (Homo sapiens, UniProt P00519).
T2 sequence (P00519 242-493 limits assumed): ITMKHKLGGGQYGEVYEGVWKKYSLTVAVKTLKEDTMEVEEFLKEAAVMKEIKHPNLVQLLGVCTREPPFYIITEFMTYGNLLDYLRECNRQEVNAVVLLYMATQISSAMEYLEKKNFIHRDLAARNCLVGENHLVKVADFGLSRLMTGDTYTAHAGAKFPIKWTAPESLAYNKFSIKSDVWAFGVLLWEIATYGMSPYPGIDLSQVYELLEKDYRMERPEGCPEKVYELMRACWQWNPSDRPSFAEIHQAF
Briefly: abl kinase assay (ELISA or Alphascreen). The settings on record: read-out: abl inhibition of enzyme activity. A digest of the protocol:
as §1

Test [3] addresses T3, human JAK3 (Homo sapiens, UniProt P52333).
T3 construct: The kinase domain of human JAK3 was amplified from U937mRNA; His tag (from the pFastBac HTb vector) (N); made in house; host or cells: baculovirus; Sf9 for virus, High Five insect cells for production
Kind of test: JAK3 kinase assay (ELISA or Alphascreen). The settings on record: read-out: Jak3 inhibition of enzyme activity. Put shortly: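 His-tagged human JAK3 kinase domain from High Five cells, ~1.5 μg per assay, in 50 mM HEPES pH 7.5, 10 mM MgCl2, 150 mM NaCl, 10 μM-1 mM ATP, 5 μM biotinylated peptide substrate. Phosphotyrosine by PY20 ELISA or Alphascreen.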

Test [4] addresses T4, Zap70 (Homo sapiens, UniProt P43403).
T4 sequence (P43403 338-600 limits assumed): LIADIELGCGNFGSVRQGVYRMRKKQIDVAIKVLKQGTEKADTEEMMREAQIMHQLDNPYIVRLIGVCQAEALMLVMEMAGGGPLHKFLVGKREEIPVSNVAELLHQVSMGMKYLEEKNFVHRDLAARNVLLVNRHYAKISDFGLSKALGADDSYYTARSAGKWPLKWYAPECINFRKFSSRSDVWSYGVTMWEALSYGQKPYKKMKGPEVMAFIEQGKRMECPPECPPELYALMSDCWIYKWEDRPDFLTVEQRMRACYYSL
Kind of test: Zap70 kinase assay (ELISA or Alphascreen). The settings on record: read-out: Zap70 inhibition of enzyme activity. Put shortly: as §1

In test [5] the target is hck (Homo sapiens, UniProt P08631). Kind of test: hck kinase assay (ELISA or Alphascreen). The settings on record: read-out: hck inhibition of enzyme activity. Put shortly: as §1
hck, sequence (P08631 262-515 limits assumed, species assumed): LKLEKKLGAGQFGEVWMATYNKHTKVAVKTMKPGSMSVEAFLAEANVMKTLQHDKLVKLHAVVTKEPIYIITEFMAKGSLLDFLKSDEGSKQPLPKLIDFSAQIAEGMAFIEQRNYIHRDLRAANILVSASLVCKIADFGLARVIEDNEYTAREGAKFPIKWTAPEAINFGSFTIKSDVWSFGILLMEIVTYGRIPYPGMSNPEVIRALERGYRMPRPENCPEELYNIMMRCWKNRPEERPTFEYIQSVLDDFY
Test [6] deals with T5, human JAK2 (Homo sapiens, UniProt O60674).
T5 construct: The kinase domain of human JAK2 was amplified from U937mRNA; His tag (from the pFastBac HTc vector) (N); made in house; host or cells: baculovirus; Sf9 for virus, High Five insect cells for production
T5 sequence (O60674 849-1124 limits assumed): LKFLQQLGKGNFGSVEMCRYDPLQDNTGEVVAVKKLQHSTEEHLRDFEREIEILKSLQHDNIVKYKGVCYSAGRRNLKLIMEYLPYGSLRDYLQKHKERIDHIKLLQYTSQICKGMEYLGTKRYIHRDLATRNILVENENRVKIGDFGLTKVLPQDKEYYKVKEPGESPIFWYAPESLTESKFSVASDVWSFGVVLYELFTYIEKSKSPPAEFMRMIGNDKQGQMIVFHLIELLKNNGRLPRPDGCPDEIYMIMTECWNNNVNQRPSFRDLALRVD
Kind of test: JAK2 kinase assay (ELISA or Alphascreen). The settings on record: read-out: Jak2 inhibition of enzyme activity. Put shortly:
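His-tagged human JAK2 kinase domain from baculovirus-infected insect cells, ~1.5 μg per assay, in 50 mM HEPES pH 7.5, 10 mM MgCl2, 150 mM NaCl, with 10 μM–1 mM ATP and 5 μM biotinylated peptide substrate. Phosphotyrosine detected by PY20 ELISA or AlphaScreen.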

The target of test [7] is fes (Homo sapiens, UniProt P07332). Kind of test: fes kinase assay (ELISA or Alphascreen). The settings on record: read-out: fes inhibition of enzyme activity. Put shortly:
as §1

fes, sequence (P07332 561-822 limits assumed, species assumed): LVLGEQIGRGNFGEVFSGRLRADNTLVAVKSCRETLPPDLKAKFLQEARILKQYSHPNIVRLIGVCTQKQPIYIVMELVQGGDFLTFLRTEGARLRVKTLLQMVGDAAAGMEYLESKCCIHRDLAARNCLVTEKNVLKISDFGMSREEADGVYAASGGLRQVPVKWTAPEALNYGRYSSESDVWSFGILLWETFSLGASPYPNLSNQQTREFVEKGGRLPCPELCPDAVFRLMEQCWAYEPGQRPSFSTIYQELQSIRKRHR
T3 sequence (P52333 822-1111 limits assumed): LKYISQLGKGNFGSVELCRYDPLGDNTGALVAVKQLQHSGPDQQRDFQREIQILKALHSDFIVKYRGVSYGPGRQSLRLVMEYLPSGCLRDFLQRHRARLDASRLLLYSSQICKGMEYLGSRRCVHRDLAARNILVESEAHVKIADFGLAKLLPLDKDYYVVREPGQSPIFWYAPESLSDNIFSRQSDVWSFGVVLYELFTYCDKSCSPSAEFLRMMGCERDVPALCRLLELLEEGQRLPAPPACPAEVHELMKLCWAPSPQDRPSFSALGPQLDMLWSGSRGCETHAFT

As to `O=C(Nc1ccccc1)c1cncc(-c2ccc(O)cc2)c1`, the inhibition at 10 µM in test [1], in test [2], in test [3], in test [4], in test [5] and in test [6] was less than 50% each time.
`C[C@@H](NC(=O)c1cncc(-c2cccnc2)c1)c1ccccc1`: the inhibition at 10 µM in test [1], in test [2], in test [3], in test [7], in test [5] and in test [6] was less than 50% each time.
Consider `COc1cc(NC(=O)c2cncc(-c3ccc(F)cc3)c2)cc(OC)c1OC`, for which the inhibition at 10 µM in test [1], in test [2], in test [3], in test [4], in test [5] and in test [6] was less than 50% throughout.
With `COc1cc(-c2cncc(C(=O)Nc3cc(C)ccc3C)c2)c(Cl)c(OC)c1OC`, the inhibition at 10 µM in test [1] was not below 50%; in test [2], less than 50%; in test [3], less than 50%; in test [7], less than 50%; in test [5], not below 50%; in test [6] it was less than 50%.
Take `O=C(Nc1ccccc1)c1cncc(-c2ccc(F)cc2)c1`: the inhibition at 10 µM in test [1], in test [2], in test [3], in test [7], in test [5] and in test [6] was less than 50% each time.
Turning to `COc1cc(-c2cncc(C(=O)Nc3cc(C)ccc3C)c2)ccc1O`, the inhibition at 10 µM in test [1] is not below 50%; in test [2] it was not below 50%; in test [3], less than 50%; in test [4] it was less than 50%; in test [5], not below 50%; in test [6], less than 50%.
With `COc1cccc(-c2cncc(C(=O)Nc3ccccc3)c2)c1`, the inhibition at 10 µM in test [1], in test [2], in test [3], in test [7], in test [5] and in test [6] was less than 50% each time.
`Cc1ccc(C)c(NC(=O)c2cncc(-c3ccc(O)cc3)c2)c1`: the inhibition at 10 µM in test [1] is less than 50%; in test [2], less than 50%; in test [3] it was less than 50%; in test [4] it was less than 50%; in test [5], not below 50%; in test [6] it was less than 50%.
For the compound `COc1cc(-c2cncc(C(=O)N[C@H](C)c3ccccc3)c2)c(Cl)c(OC)c1OC`, the inhibition at 10 µM in test [1], in test [2], in test [3], in test [7], in test [5] and in test [6] was less than 50% in each case.
`Cc1cc(-c2cncc(C(=O)Nc3ccccc3)c2)cc(C)c1O`: the inhibition at 10 µM is less than 50% in test [1]; less than 50% in test [2]; less than 50% in test [3]; less than 50% in test [4]; not below 50% in test [5]; less than 50% in test [6].
On to `C[C@H](NC(=O)c1cncc(-c2ccc(F)cc2)c1)c1ccccc1`, for which the inhibition at 10 µM in test [1], in test [2], in test [3], in test [4], in test [5] and in test [6] was less than 50% each time.
Regarding `O=C(NCc1ccc(Cl)c(Cl)c1)c1cncc(-c2ccc(F)cc2)c1`, the inhibition at 10 µM in test [1], in test [2], in test [3], in test [7], in test [5] and in test [6] was less than 50% each time.
For `O=C(NCc1cccc(F)c1)c1cncc(-c2cccs2)c1`, the inhibition at 10 µM was less than 50% in test [1]; less than 50% in test [2]; less than 50% in test [3]; not below 50% in test [7]; less than 50% in test [5]; less than 50% in test [6].
In the case of `COc1cccc(-c2cncc(C(=O)NC(C)CCc3ccccc3)c2)c1` (stereo not drawn), the inhibition at 10 µM in test [1], in test [2], in test [4], in test [7], in test [5] and in test [6] was less than 50% throughout.
Consider `Cc1ccccc1NC(=O)c1cncc(-c2cc(C)c(O)c(C)c2)c1`, for which the inhibition at 10 µM in test [1] was not below 50%; in test [2], not below 50%; in test [3], less than 50%; in test [4], less than 50%; in test [5], not below 50%; in test [6], less than 50%.
In the case of `COc1cc(-c2cncc(C(=O)NCc3ccncc3)c2)c(Cl)c(OC)c1OC`, the inhibition at 10 µM in test [1], in test [2], in test [4], in test [7], in test [5] and in test [6] was less than 50% in each case.
Turning to `O=C(NCc1ccco1)c1cncc(-c2ccc(F)cc2)c1`, the inhibition at 10 µM was less than 50% in test [1]; less than 50% in test [2]; not below 50% in test [3]; less than 50% in test [4]; less than 50% in test [5]; less than 50% in test [6].
For the compound `C[C@@H](NC(=O)c1cncc(-c2ccncc2)c1)c1ccccc1`, the inhibition at 10 µM in test [1] is less than 50%; in test [2] it was less than 50%; in test [3], less than 50%; in test [4], not below 50%; in test [5], less than 50%; in test [6] it was less than 50%.
In the case of `COc1cc(-c2cncc(C(=O)Nc3cc(F)ccc3C)c2)ccc1O`, the inhibition at 10 µM in test [1] was not below 50%; in test [2], not below 50%; in test [3], less than 50%; in test [7] it was less than 50%; in test [5], not below 50%; in test [6], less than 50%.
Take `Cc1cc(F)ccc1NC(=O)c1cncc(-c2ccc3c(c2)OCO3)c1`: the inhibition at 10 µM in test [1], in test [2], in test [3], in test [4], in test [5] and in test [6] was less than 50% in each case.
Regarding `COc1ccc(NC(=O)c2cncc(-c3cccs3)c2)c(OC)c1`, the inhibition at 10 µM in test [1], in test [2], in test [4], in test [7], in test [5] and in test [6] was less than 50% throughout.
In the case of `COc1cc(-c2cncc(C(=O)NC(C)CCc3ccccc3)c2)c(Cl)c(OC)c1OC` (stereo not drawn), the inhibition at 10 µM in test [1], in test [2], in test [3], in test [4], in test [5] and in test [6] was less than 50% each time.

The values above are taken from patent publication US8030336B2, “Nicotinamide-based kinase inhibitors” (YM Biosciences Australia Pty Ltd, priority 2002, dated 2011).
